From patent publication US7906486B2, “Method of treating or preventing tissue deterioration, injury or damage due to disease of mucosa” (SciClone Pharmaceuticals, Inc., priority 2007, dated 2011)
“And” between values parts separate entries of the source, which are not always exact repeats. Identical values can stand only once.

How the values were obtained:
Type in all cases: in vivo, Syrian Golden Hamsters
[1] = system: oral mucositis induced by acute radiation (40 Gy, left buccal cheek pouch); test: Oral mucositis induced by acute radiation in hamsters, mucositis scoring (Example 1, SCI-01); design: key to peak mean mucositis score: 0 = normal, 5 = severe ulceration; conditions: for Days <3: animal days with mucositis score below three; for % Days >=3 / Days >=3: animal days with mucositis score of three or more; for Chi Sq v control: days with score >=3
Source text: The acute radiation model in hamsters has proven to be an accurate, efficient and cost-effective technique to provide a preliminary evaluation of anti-mucositis compounds. The course of mucositis in this model is well defined and results in peak scores approximately 14-16 Days following radiation. The acute model has little systemic toxicity, resulting in few hamster deaths, thus permitting the use of smaller groups (N=7-8) for initial efficacy studies. It has also been used to study specific mechanistic elements in the pathogenesis of mucositis. Molecules that show efficacy in the acute radiation model may be further evaluated in the more complex models of fractionated radiation, chemotherapy, or concomitant therapy.
In this study, an acute radiation dose of 40 Gy on day 0 was administered. Clinically significant mucositis was observed on days 12 through 28.
Thirty-two (32) Syrian Golden Hamsters were given an acute radiation dose of 40 Gy directed to their left buccal cheek pouch on day 0. Test materials were given by sub-cutaneous injection once daily. Dosing began one day before radiation (day −1) and continued until day 16. Mucositis was evaluated clinically starting on day 6, and continuing on alternate days until day 28.
The grade of mucositis was scored, beginning day 6, and for every second day thereafter, through and including day 28. The effect on mucositis of each drug treatment compared to placebo was assessed according to the following parameters:
The difference in the number of days hamsters in each group have ulcerative (score ≧3) mucositis.
On each evaluation day, the number of animals with a blinded mucositis score of 3 in each drug treatment group was compared to the control group. Differences were compared on a cumulative basis and statistical significance was determined by chi-square analysis. Efficacy, in this analysis, is defined by a significant reduction in the number of days that a group of animals had ulcerations (scores 3) when compared to the control group.
For each evaluation day the scores of the control group were compared to those of the treated groups using non-parametric rank sum analysis. Treatment success was considered as a statistically significant lowering of scores in the treated group on 2 or more days from day 6 to day 28.
Thirty-two Syrian Golden Hamsters were divided into four (4) groups of eight (8) animals each. All animals received a single dose of acute radiation of 40 Gy directed to their left buccal cheek pouch on day 0. This was accomplished by anesthetizing the animals and everting the left buccal pouch, while protecting the rest of the animals with a lead shield. Test materials were given by sub-cutaneous injection once daily as detailed in Table 1. Mucositis was evaluated clinically starting on Day 6, and continuing on alternate days until day 28.
Mucositis was induced using a standardized acute radiation protocol. A single dose of radiation (40 Gy/dose) was administered to all animals on day 0. Radiation was generated with a 160 kilovolt potential (15-ma) source at a focal distance of 30 cm, hardened with a 0.35 mm Cu filtration system. Irradiation targeted the left buccal pouch mucosa at a rate of 3.2 Gy/minute. Prior to irradiation, animals were anesthetized with an intraperitoneal injection of Ketamine (160 mg/kg) and Xylazine (8 mg/kg). The left buccal pouch was everted, fixed and isolated using a lead shield to protect all other parts of the hamster's body.
The mucositis score, weight change and survival were measured throughout the study as described above. For the evaluation of mucositis, the animals were anesthetized with an inhalation anesthetic, and the left pouch everted. Mucositis was scored visually by comparison to a validated photographic scale, ranging from 0 for normal, to 5 for severe ulceration (clinical scoring). In descriptive terms, this scale is defined as follows: […]

[2] = Weights and survival (Example 3, SCI-03)
Experimental: (§1) All animals were weighed daily and their survival recorded, in order to assess possible differences in animal weight among treatment groups as an indication for mucositis severity and/or possible toxicity resulting from the treatments.
There were no significant differences in weight changes between study groups. The mean daily percent weight change data was evaluated. The saline treated control hamsters gained an average of 76.3% of their starting weight during the study. Hamsters in the group receiving SCV-07 at 100 μg/kg on days −1 to 29 gained an average of 80.7% of their starting weight during the study. Hamsters in the group receiving SCV-07 at 100 μg/kg on days of radiation only gained an average of 66.3% of their starting weight during the study. Hamsters in the group receiving SCV-07 at 100 μg/kg on day −1, day 4, day 5 and days 10-29 gained an average of 69.7% of their starting weight during the study. The significance of these differences was evaluated by calculating the area-under-the-curve (AUC) for the weight gain of each animal, and then comparing the different treatment groups using a One-Way ANOVA test.

[3] = Weights and survival (Example 1, SCI-01)
Experimental: as §1
The mean daily percent weight change data was evaluated. The saline (PBS) treated control hamsters gained an average of 70.4% of their starting weight during the study. Hamsters in the group receiving SCV-07 at 1 ug/kg on days −1 to 16 gained an average of 68.4% of their starting weight during the study. Hamsters in the group receiving SCV-07 at 10 ug/kg on days −1 to 16 gained an average of 70.3% of their starting weight during the study. Hamsters in the group receiving SCV-07 at 100 ug/kg on days −1 to 16 gained an average of 82.0% of their starting weight during the study. The significance of these differences was evaluated by calculating the area-under-the-curve (AUC) for the weight gain of each animal, and then comparing the different treatment groups using a One-Way ANOVA test.

[4] = individual animals, Group 4 (SCV-07 100 μg/kg on days −1, 4, 5 and 10-29), second part of table

N[C@H](CCC(=O)N[C@@H](Cc1c[nH]c2ccccc12)C(=O)O)C(=O)O [SCV-07, γ-D-glutamyl-L-tryptophan]
day of peak mean mucositis score ([1]; 1 ug/kg from day -1 to 16): 16 | peak mean mucositis score ([1]; 1 ug/kg from day -1 to 16): 3.8 | improvement in daily mucositis scores relative to saline controls (Mann-Whitney rank sum) ([1]; 1 ug/kg on days -1 to 16, any day of the study): did not show any statistically significant improvement on any day | day of peak mean mucositis score ([1]; 10 ug/kg from day -1 to 16): 16 | peak mean mucositis score ([1]; 10 ug/kg from day -1 to 16): 3.7 | day of peak mean mucositis score ([1]; 100 ug/kg from day -1 to 16): 18 | peak mean mucositis score ([1]; 100 ug/kg from day -1 to 16): 3.4 | Days <3 ([1]; 1 ug/kg sc Days -1 to 16): 102 | Days <3 ([1]; 10 ug/kg sc Days -1 to 16): 120 | Days <3 ([1]; 100 ug/kg sc Days -1 to 16): 124 | % Days >=3 ([1]; 1 ug/kg sc Days -1 to 16): 46.9% | Days >=3 ([1]; 1 ug/kg sc Days -1 to 16): 90 | % Days >=3 ([1]; 10 ug/kg sc Days -1 to 16): 37.5% | Days >=3 ([1]; 10 ug/kg sc Days -1 to 16): 72 | % Days >=3 ([1]; 100 ug/kg sc Days -1 to 16): 35.4% | Days >=3 ([1]; 100 ug/kg sc Days -1 to 16): 68 | Chi Sq v control ([1]; 1 ug/kg sc Days -1 to 16): 0.0105 | Chi Sq v control ([1]; 10 ug/kg sc Days -1 to 16): 3.0860 | Chi Sq v control ([1]; 100 ug/kg sc Days -1 to 16): 4.7420 | average weight gain, % of starting weight during the study ([2]; 100 ug/kg on day -1, day 4, day 5 and days 10-29): 69.7% | average weight gain, % of starting weight during the study ([2]; 100 ug/kg on days -1 to 29): 80.7% | average weight gain, % of starting weight during the study ([2]; 100 ug/kg on days of radiation only): 66.3% | Animal weight, Day 18 [2, 4]: 113 and 121 and 88 and 98 | Animal weight, Day 19 [2, 4]: 118 and 127 and 92 and 102 | Animal weight, Day 20 [2, 4]: 118 and 128 and 92 and 104 | Animal weight, Day 21 [2, 4]: 119 and 131 and 94 and 109 | Animal weight, Day 22 [2, 4]: 120 and 133 and 95 and 109 | Animal weight, Day 23 [2, 4]: 120 and 135 and 97 and 111 | Animal weight, Day 24 [2, 4]: 123 and 135 and 99 and 112 | Animal weight, Day 25 [2, 4]: 122 and 137 and 98 and 113 | Animal weight, Day 26 [2, 4]: 123 and 139 and 100 and 118 | Animal weight, Day 27 [2, 4]: 127 and 140 and 102 and 121 | Animal weight, Day 28 [2, 4]: 128 and 142 and 103 and 122 | Animal weight, Day 29 [2, 4]: 128 and 142 and 102 and 118 | Animal weight, Day 30 [2, 4]: 132 and 146 and 105 and 126 | Animal weight, Day 31 [2, 4]: 134 and 150 and 108 and 126 | Animal weight, Day 32 [2, 4]: 134 and 149 and 109 and 129 | Animal weight, Day 33 [2, 4]: 137 and 154 and 112 and 132 | Animal weight, Day 35 [2, 4]: 140 and 154 and 113 and 134 | Animal weight, Day 34 ([2]; individual animals, Group 4 (SCV-07 100 μg/kg on days −1, 4, 5 and 10-29), second part of table, c18, day inferred as 34): 139 and 153 and 112 and 133 | average weight gain, % of starting weight during the study ([3]; 1 ug/kg on days -1 to 16): 68.4% | average weight gain, % of starting weight during the study ([3]; 10 ug/kg on days -1 to 16): 70.3% | average weight gain, % of starting weight during the study ([3]; 100 ug/kg on days -1 to 16): 82.0%
